These results are taken from ChEMBL document CHEMBL1152175, “Synthesis, tubulin assembly, and antiproliferative activity against MCF7 and NCI/ADR-RES cancer cells of 10-O-acetyl-5'-hydroxybutitaxel” (2008).

In assay [1] the test system is NCI/ADR-RES. The assay can be described thus: Cytotoxicity against human NCI/ADR-RES cells. Format: functional. The note with it: read-out: ED50 (the source's name).
A short description of assay [2]: Inhibition of tubulin assembly.
Assay [3] concerns MCF7. Kind of assay: Cytotoxicity against human MCF7 cells. The assay is classed as functional. The settings on record: read-out: ED50 (the source's name).

Turning to `CC(=O)O[C@H]1C(=O)[C@@]2(C)[C@H]([C@H](OC(=O)c3ccccc3)[C@]3(O)C[C@H](OC(=O)[C@H](O)[C@@H](NC(=O)c4ccccc4)c4ccccc4)C(C)=C1C3(C)C)[C@]1(OC(C)=O)CO[C@@H]1C[C@@H]2O` [PACLITAXEL], the EC50 in assay [1] came to 2000 nM; in assay [3], 2.1 nM. The molecule also yielded an ED50 in assay [2] of 1200 nM.

Turning to `CC(=O)O[C@H]1C(=O)[C@@]2(C)[C@H]([C@H](OC(=O)c3ccccc3)[C@]3(O)C[C@H](OC(=O)[C@H](O)[C@@H](NC(=O)OC(C)(C)C)C(C)(C)CO)C(C)=C1C3(C)C)[C@]1(OC(C)=O)CO[C@@H]1C[C@@H]2O`, the EC50 in assay [1] is 12500 nM; in assay [3], 560 nM. In assay [2], this molecule returned an ED50 of 2200 nM.
